Results on eight compounds are retold here after ChEMBL document CHEMBL1201862, “PubChem BioAssay data set” (2004).

One assay addresses T1, Caspase-3 (Homo sapiens, UniProt P42574).
T1 sequence (P42574 whole entry): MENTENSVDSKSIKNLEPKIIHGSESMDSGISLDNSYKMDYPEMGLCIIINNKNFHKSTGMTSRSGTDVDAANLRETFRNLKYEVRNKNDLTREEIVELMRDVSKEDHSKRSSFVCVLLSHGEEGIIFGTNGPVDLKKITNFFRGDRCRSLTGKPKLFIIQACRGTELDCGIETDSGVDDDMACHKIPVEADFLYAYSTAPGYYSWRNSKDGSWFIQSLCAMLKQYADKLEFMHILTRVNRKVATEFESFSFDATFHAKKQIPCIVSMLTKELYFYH
Kind of assay: activators of human procaspase-3 D3A mutant – biochemical, absorbance, PC-3 D3A mutant, counter-screen for dual procaspase-3/7 activator project, dose response (AID 504328).

The target of another assay is Caspase-7 (Homo sapiens, UniProt P55210). As to the kind of experiment: potency of procaspase-7 enzyme activation – biochemical, absorbance, human, dual procaspase-3/-7 activator project, dose response (AID 504330).
Assay [1] has as its target T2, Replicative DNA helicase DnaB (Mycobacterium tuberculosis, UniProt P9WMR3).
T2 sequence (P9WMR3 whole entry): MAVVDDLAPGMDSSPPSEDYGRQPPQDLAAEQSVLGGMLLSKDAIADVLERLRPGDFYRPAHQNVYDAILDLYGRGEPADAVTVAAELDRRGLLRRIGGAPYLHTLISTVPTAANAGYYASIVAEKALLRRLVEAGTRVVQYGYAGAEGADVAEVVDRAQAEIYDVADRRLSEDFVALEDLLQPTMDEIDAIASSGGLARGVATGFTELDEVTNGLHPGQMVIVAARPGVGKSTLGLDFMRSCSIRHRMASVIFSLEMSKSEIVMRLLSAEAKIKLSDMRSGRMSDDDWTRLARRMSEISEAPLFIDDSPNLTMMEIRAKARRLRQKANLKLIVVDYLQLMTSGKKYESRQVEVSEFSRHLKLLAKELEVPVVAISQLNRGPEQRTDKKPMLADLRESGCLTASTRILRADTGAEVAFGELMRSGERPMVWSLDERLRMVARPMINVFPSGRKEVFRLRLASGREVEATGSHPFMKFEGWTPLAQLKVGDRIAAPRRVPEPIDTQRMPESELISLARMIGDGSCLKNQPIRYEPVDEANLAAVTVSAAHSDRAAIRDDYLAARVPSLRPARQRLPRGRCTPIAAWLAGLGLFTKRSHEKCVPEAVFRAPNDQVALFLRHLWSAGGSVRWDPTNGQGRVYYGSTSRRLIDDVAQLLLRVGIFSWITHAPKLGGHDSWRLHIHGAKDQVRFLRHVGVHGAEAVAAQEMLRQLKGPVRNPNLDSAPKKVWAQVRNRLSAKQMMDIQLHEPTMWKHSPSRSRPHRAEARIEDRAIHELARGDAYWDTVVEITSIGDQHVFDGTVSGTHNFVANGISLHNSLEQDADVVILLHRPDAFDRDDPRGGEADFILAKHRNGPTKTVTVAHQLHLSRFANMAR
Kind of assay: DnaB intein splicing inhibitors, dose response, biochemical, cell-free fluorescence (AID 449749). It is filed as functional.

Another assay addresses T3, Protein RecA (Mycobacterium tuberculosis, UniProt P9WHJ3).
T3 sequence (P9WHJ3 whole entry): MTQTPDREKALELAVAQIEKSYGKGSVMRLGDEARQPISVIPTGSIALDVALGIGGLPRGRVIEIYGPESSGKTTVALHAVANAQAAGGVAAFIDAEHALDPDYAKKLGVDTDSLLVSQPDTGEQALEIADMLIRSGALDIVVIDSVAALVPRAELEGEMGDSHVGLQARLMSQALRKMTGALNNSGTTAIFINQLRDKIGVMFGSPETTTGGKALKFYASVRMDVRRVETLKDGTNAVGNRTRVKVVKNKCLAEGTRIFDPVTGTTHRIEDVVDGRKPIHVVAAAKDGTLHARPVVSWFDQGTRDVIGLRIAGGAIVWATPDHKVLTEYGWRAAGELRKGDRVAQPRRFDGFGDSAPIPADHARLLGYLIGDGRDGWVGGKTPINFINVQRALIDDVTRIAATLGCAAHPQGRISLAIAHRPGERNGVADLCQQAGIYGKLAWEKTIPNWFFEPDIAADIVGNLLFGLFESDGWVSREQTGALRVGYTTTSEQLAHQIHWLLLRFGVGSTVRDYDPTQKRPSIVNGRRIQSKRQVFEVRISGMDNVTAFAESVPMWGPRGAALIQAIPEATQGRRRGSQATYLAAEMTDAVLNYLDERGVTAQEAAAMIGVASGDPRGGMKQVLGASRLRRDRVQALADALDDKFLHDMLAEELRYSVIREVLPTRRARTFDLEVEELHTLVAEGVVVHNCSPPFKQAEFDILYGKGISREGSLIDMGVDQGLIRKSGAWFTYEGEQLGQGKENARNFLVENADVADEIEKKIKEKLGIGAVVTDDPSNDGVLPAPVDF
As to the kind of experiment: Fluorescence Cell-Free Homogeneous Dose Retest to Identify Inhibitors of RecA-Intein Splicing Activity. [Related pubchem assays (depositor defined):AID2097, AID2223, AID489010, AID492950]. The format is functional.

Assay [2] addresses Alkaline phosphatase, placental type (Homo sapiens, UniProt P05187). As to the kind of experiment: human placental alkaline phosphatase inhibition – biochemical, luminescence, confirmation (AID 1512). It is filed as functional.
Assay [3] deals with T4, Tyrosine-protein phosphatase non-receptor type 7 (Homo sapiens, UniProt P35236).
T4 sequence (P35236 whole entry): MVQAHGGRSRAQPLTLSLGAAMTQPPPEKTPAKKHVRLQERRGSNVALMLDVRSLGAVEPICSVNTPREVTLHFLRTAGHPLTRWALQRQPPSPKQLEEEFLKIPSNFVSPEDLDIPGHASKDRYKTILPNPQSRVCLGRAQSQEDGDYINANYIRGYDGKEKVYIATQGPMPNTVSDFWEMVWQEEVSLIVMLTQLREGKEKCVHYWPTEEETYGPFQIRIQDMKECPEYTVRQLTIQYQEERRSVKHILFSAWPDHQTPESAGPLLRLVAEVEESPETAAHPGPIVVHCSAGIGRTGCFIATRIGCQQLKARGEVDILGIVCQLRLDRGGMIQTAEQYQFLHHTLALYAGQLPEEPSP
Kind of assay: SAR analysis of chemical inhibitors of HePTP using a Fluorescent assay - Set 2. [Related pubchem assays (depositor defined):AID1059, AID1077, AID1661, AID2085, AID521]. It is filed as functional.

In assay [4] the target is Dual specificity protein phosphatase 3 (Homo sapiens, UniProt P51452). Kind of assay: SAR VHR1 Fluorescent Assay for In Vitro dose response studies Set 2. [Related pubchem assays (depositor defined):AID1654, AID1661, AID1878]. It is filed as functional.
Assay [5] deals with T5, G-protein coupled receptor 55 (Homo sapiens, UniProt Q9Y2T6). As to the kind of experiment: selective activators of receptor GPR55 – imaging, U2OS cells, beta-arrestin-GFP redistribution, primary screen (AID 1961). It is filed as functional.
For assay [6], the target named is T5, G-protein coupled receptor 55. As to the kind of experiment: inhibition of LPI-stimulated GPR55 beta-arrestin translocation – imaging, U2OS, beta-arrestin-GFP, LPI agonist, primary screen (AID 2013).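 Also: antagonist potency measured as reduced agonist-driven arrestin aggregation.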 The format is functional.
The target of assay [7] is Voltage-dependent T-type calcium channel subunit alpha-1H (Homo sapiens, UniProt O95180). It is filed as functional.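 Also: channel activity triggered by adding a high calcium stimulation buffer.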
For assay [8], the target named is Eukaryotic translation initiation factor 4H (Homo sapiens, UniProt Q15056). Kind of assay: inhibitors of translation initiation factor eIF4H – SAR follow-up (AID 435011). It is filed as functional.
Assay [9] has as its target Polyadenylate-binding protein 1 (Homo sapiens, UniProt P11940). Kind of assay: PABP inhibition in translation initiation, SAR follow-up (AID 435018). It is filed as functional.
The target of assay [10] is Melanin-concentrating hormone receptor 1 (Homo sapiens, UniProt Q99705). Kind of assay: Late-stage fluorescence-based counterscreen for antagonists of the G-protein coupled receptor 7 (GPR7): cell-based dose response assay to identify antagonists of the melanin-concentrating hormone receptor 1 (MCHR1). [Related pubchem assays (depositor defined):AID1861, AID1880, AID1952, AID2148, AID2251, AID2257, AID485339]. It is filed as functional.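 Also: stimulated with 30 nM MCH peptide agonist.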

In assay [11] the target is T6, Neuropeptides B/W receptor type 1 (Homo sapiens, UniProt P48145).
T6 sequence (P48145 whole entry): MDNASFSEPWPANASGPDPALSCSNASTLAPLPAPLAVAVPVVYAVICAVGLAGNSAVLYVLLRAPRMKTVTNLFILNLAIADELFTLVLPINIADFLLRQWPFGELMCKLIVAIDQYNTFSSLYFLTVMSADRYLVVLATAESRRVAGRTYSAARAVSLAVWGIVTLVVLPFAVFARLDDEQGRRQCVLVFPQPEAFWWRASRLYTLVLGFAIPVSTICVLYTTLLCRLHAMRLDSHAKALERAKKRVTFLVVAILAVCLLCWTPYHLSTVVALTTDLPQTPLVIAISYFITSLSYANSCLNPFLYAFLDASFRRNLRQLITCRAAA
Kind of assay: human NPBW1 receptor blockade, IC50 – cell-based, fluorescence, dose response, late-stage follow-up (AID 463251). The format is functional.

The nature of assay [12]: NIH/3T3 cell viability loss – mouse embryonic fibroblasts, dry powder, set 2, cytotoxicity control, dose response (AID 493247). It is filed as functional, cell-based. The following applies: Fibroblast.
Another assay deals with Trypanosoma cruzi. As to the kind of experiment: anti-trypanosomal activity in host cells – cell-based, plate reader, dry powder, set 3, dose response (AID 493197). It is filed as functional.
The target of assay [13] is 5-hydroxytryptamine receptor 1A (Homo sapiens, UniProt P08908). The format is functional.
The target in assay [14] is T7, Short transient receptor potential channel 4 (Mus musculus, UniProt Q9QUQ5).
T7 sequence (Q9QUQ5 whole entry): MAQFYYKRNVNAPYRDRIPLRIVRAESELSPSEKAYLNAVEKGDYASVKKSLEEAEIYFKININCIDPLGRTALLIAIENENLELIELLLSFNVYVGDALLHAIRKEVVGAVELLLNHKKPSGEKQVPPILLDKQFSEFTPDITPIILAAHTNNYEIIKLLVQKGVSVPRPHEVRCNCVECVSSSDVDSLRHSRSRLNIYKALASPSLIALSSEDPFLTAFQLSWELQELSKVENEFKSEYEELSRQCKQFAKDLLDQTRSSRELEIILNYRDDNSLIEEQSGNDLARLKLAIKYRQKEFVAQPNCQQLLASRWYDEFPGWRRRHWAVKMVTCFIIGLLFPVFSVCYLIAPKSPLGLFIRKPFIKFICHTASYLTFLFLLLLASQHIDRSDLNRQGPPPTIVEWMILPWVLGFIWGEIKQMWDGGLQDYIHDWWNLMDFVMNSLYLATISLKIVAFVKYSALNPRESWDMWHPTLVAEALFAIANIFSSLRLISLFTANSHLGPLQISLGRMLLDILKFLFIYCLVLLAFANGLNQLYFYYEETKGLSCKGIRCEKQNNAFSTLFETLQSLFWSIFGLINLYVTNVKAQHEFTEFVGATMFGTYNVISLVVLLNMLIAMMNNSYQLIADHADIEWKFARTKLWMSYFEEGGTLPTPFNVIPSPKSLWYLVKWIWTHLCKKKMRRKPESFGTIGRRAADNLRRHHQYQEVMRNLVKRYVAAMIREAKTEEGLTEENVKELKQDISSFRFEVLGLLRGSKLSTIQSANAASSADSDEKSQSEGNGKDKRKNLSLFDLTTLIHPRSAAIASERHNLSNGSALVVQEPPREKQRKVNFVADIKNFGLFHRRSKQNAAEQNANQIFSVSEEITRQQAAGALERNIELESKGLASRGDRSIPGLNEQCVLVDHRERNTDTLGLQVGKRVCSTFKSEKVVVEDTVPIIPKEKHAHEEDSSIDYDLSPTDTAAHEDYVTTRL
As to the kind of experiment: potentiation of DAMGO-evoked TRPC4 calcium signal – cell-based, HEK293 TRPC4/mu-opioid, Fluo-4 calcium, EC20 DAMGO, dose response (AID 434941).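 Also: HEK293 cells coexpressing TRPC4 and mu opioid receptor stimulated by EC20 DAMGO.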 The format is functional.

Where a name gives a salt, the structure may show the parent alone. Activity calls are given as the source filed them.

T5 sequence (Q9Y2T6 whole entry): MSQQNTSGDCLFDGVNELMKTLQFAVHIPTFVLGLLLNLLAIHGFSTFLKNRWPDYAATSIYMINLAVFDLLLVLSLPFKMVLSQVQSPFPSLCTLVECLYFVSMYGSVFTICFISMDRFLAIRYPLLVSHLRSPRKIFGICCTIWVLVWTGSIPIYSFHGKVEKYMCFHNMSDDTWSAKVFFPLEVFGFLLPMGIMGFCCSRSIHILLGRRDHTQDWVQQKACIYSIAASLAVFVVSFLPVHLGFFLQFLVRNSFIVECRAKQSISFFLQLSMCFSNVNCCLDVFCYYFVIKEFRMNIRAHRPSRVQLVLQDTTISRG
Chain of Alkaline phosphatase, placental type (P05187 whole entry): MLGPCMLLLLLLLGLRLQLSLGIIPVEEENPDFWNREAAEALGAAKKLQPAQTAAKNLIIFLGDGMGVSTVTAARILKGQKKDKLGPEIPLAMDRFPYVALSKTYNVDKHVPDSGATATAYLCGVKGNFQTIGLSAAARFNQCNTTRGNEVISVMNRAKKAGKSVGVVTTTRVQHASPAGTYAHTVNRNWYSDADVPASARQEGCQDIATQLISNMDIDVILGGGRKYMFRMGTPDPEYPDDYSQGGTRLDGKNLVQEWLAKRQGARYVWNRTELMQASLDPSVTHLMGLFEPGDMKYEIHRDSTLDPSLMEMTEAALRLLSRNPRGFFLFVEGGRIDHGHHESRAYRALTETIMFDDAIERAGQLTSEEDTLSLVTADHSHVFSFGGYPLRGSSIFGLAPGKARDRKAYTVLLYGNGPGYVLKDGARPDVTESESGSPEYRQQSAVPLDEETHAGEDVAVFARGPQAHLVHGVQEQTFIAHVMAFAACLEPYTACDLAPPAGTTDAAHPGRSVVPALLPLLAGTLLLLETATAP
Chain of Polyadenylate-binding protein 1 (P11940 whole entry): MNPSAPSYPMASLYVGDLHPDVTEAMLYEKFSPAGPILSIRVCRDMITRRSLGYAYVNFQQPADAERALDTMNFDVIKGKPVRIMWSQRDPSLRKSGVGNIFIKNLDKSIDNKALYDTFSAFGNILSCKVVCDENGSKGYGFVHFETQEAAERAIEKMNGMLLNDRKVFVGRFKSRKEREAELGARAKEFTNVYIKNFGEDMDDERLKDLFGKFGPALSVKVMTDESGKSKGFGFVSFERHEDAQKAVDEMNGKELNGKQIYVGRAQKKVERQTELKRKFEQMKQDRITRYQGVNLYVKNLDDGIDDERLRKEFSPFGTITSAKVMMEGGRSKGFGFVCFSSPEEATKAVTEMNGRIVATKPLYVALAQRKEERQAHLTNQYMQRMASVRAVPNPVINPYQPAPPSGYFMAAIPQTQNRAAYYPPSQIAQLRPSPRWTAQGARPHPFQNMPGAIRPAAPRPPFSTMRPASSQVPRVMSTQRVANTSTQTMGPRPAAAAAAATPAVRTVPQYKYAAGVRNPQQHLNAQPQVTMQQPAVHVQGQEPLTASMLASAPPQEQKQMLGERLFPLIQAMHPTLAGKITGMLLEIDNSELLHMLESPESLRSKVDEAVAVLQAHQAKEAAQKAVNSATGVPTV
Chain of Melanin-concentrating hormone receptor 1 (Q99705 whole entry): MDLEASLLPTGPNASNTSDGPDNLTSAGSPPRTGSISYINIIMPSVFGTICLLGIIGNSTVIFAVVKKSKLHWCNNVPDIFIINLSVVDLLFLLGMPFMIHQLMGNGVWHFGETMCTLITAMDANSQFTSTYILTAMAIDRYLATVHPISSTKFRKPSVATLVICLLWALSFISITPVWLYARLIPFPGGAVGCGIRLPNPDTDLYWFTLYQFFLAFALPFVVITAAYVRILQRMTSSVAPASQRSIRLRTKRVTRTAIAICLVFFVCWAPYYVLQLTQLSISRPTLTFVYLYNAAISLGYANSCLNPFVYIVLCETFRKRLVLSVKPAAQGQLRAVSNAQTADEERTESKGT
Chain of Voltage-dependent T-type calcium channel subunit alpha-1H (O95180 whole entry): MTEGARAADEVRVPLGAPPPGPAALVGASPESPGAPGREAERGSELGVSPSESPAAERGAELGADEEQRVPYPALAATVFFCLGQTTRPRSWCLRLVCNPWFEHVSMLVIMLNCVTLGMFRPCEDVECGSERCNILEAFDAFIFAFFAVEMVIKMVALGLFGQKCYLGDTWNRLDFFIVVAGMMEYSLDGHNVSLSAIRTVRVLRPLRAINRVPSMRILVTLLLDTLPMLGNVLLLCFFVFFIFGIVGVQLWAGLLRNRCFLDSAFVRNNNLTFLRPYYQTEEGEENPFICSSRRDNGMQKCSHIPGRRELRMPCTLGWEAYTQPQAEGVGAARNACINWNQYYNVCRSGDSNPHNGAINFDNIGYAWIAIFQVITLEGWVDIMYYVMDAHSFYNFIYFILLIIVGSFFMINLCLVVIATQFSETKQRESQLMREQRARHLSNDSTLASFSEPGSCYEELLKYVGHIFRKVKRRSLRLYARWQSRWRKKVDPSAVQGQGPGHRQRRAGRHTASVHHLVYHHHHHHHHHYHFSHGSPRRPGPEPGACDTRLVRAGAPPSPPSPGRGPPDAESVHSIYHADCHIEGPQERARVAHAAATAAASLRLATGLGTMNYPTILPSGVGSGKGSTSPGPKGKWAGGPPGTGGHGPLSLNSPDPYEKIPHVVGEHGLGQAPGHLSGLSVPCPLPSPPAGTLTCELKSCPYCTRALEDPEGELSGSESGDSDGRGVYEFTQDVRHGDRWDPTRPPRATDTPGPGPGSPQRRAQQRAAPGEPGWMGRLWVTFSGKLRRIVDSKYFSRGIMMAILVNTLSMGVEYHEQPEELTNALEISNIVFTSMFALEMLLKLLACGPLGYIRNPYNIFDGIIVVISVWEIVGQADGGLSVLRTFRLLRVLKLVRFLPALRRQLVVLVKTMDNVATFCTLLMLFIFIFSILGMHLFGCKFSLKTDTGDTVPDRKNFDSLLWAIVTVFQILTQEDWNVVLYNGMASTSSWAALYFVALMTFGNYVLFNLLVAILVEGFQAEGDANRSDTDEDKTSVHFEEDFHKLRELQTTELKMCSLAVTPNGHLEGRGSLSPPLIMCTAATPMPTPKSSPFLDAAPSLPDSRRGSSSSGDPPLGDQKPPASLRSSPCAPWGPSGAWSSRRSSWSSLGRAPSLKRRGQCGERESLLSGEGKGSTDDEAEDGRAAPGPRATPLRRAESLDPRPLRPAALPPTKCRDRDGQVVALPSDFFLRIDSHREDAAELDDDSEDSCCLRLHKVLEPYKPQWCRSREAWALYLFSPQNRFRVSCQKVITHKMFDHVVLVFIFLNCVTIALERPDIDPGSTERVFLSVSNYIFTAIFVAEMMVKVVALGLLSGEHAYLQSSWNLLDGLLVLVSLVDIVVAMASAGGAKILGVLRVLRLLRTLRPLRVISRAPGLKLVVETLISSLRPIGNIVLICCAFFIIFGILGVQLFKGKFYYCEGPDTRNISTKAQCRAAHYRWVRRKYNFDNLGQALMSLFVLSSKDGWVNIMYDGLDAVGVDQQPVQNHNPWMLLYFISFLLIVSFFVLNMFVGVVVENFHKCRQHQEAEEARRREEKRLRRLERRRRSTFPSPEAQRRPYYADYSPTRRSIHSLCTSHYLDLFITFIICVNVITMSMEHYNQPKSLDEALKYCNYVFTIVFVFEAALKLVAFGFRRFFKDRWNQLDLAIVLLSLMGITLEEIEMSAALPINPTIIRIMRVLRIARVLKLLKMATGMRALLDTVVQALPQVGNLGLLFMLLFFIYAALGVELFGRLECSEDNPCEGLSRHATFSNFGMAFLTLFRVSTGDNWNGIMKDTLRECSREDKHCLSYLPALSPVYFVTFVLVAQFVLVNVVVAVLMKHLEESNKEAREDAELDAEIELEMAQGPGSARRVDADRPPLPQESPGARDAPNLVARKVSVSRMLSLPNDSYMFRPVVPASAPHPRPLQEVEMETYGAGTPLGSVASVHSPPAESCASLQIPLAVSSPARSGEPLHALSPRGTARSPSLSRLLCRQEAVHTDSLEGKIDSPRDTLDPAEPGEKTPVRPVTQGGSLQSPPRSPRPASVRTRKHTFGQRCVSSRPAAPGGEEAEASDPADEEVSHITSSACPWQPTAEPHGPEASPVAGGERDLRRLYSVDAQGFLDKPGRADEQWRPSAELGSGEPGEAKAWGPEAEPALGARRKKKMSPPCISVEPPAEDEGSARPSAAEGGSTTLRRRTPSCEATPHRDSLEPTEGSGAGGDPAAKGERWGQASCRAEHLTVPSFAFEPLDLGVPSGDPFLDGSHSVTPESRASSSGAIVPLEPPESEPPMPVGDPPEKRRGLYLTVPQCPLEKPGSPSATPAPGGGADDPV
Chain of 5-hydroxytryptamine receptor 1A (P08908 whole entry): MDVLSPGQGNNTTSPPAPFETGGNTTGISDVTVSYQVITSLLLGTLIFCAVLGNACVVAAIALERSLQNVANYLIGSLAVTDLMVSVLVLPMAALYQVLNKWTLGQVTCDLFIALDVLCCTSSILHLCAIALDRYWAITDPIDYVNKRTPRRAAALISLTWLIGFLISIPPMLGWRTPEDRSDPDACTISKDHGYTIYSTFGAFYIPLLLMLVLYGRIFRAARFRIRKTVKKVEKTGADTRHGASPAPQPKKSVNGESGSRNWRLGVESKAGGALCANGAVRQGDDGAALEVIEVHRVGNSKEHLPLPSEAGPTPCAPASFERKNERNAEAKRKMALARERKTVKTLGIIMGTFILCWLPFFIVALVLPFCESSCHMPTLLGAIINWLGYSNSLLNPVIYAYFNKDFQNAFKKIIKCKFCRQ
Chain of Dual specificity protein phosphatase 3 (P51452 whole entry): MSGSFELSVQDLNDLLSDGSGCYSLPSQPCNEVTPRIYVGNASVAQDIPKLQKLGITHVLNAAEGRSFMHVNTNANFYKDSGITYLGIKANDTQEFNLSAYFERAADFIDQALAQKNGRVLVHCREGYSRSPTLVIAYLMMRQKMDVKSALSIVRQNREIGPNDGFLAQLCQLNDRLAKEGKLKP

Take `Cc1n[nH]c2c1C(c1c[nH]c3ccccc13)C(C#N)=C(N)O2` (stereo not drawn): the EC50 on Caspase-3 is 23.1 µM (inactive); at Caspase-7 it was 27.8 µM (inactive); on Protein RecA, 2.03 µM (active). Besides, the AC50 in [1] was 3.79 µM (active).
For `Cc1ccc(NC(S)=NNC(=O)c2cn(C)nc2C)cc1`, the IC50 in assay [2], in assay [3] and in [4] was > 100 µM (inactive) each time.
For `COc1cc2c(cc1NC(=O)CSc1ccc(Cl)cc1)oc1ccccc12`, in assay [5], the EC50 is 20.7 µM (inactive).
For the compound `CCN(c1ccccc1)S(=O)(=O)c1ccc(NCC2COc3ccccc3O2)nc1` (stereo not drawn), the IC50 in assay [6] is 6.56 µM (active). Moreover, in assay [7], the half-maximal effective concentration (EC50) is 7.97 µM (active).
Regarding `COc1ccc([N+](=O)[O-])cc1NC(=O)COC(=O)c1ccccc1C(=O)c1ccccc1`, the IC50 in [8] and in [9] was > 100 µM (inactive) throughout.
`CC(C)c1ccc(-n2ncc(Cl)c(Oc3cccc(N(C)C)c3)c2=O)cc1`: the IC50 in assay [10] is 3.1 µM (active); in assay [11], 1.6 µM (active).
Regarding `O=C(Cc1cccnc1)N/N=C/c1ccc([N+](=O)[O-])o1`, the AC50 in assay [12] is 23.1 µM (active); in the assay on Trypanosoma cruzi, 0.131 µM (active).
For `Cc1cc(C(C)(C)C)c(O)c(C)c1CC1=NCCN1` [OXYMETAZOLINE HYDROCHLORIDE], the figures for the EC50 in assay [13] and in assay [14] were 0.07 µM (active) and 3.35 µM (active), respectively.
